Laboratory results: US12690589B2, “Herbicidal compositions comprising pyroxasulfone” (BASF SE, priority 2024, dated 2026)

What was measured:
Test in all cases: Post-emergence application in field trials, herbicidal activity (damage scale 0 to 100%)
Assay type in all cases: in vivo
[1] = test system: Amaranthus retroflexus (AMARE); details: stage 31-49, height 10-12 cm
Procedure: (§1) In the examples below, using the method of S. R. Colby (1967) “Calculating synergistic and antagonistic responses of herbicide combinations”, Weeds 15, p. 22ff., the value E, which is expected if the activity of the individual active compounds is only additive, was calculated:
(§2) [formula] • wherein • X=percent activity using active herbicide A at an application rate a; • Y=percent activity using active herbicide B (e.g. pyroxasulfone) at an application rate b; • E=expected activity (in %) by A+B at application rates a+b.
(§3) For 3-component mixtures the synergistic response was calculated as described in: Ferry, Nancy; Stanley, Bruce H.; and Armel, Gregory (2005). “DESIGN AND ANALYSIS OF BIOLOGICAL ASSAYS OF MIXTURES,” Conference on Applied Statistics in Agriculture. https://doi.org/10.4148/2475-7772.1133. According to this publication, the Colby calculation can be generalized to a third mixing partner, Z, employing the following formula: […]
(§4) If the value found experimentally is higher than the value E calculated according to Colby, a synergistic effect is present.
(§5) On field test sites, natural weed infestation or seeded weeds were treated post-emergence of the weeds.
(§6) In the field trials, the weeds were treated as indicated below.
(§7) In the following experiments, the herbicidal activity for the individual herbicidal compositions (solo and mixture applications) was assessed at the indicated days after treatment (DAT). The assessments for the damage on undesired weeds caused by the composition was carried out using a scale from 0 to 100%, compared to the untreated control plants. Here, 0 means no damage and 100 means complete destruction of the plants.
(§8) Herbicide A-1 (342 g/l) and pyroxasulfone (500 g/l) were, together with addition of 0.25 v/v % MSO (methylated seed oil) as adjuvant, formulated in 200 l/ha water as distribution medium and sprayed with commercial flat fan nozzles.
(§9) Herbicide A-1 (342 g/l), pyroxasulfone (500 g/l) and trifludimoxazin (500 g/l) were, together with addition of 0.25 v/v % MSO (methylated seed oil) as adjuvant, formulated in 200 l/ha water as distribution medium and sprayed with commercial flat fan nozzles.
(§10) Herbicide A-1 (342 g/I), pyroxasulfone (500 g/l) and glyphosate-isopropylammonium (356 g/l) were, together with addition of 0.25 v/v % MSO (methylated seed oil) as adjuvant, formulated in 200 l/ha water as distribution medium and sprayed with commercial flat fan nozzles.
(§11) Herbicide A-1 (342 g/l), pyroxasulfone (500 g/l) and glufosinate-P-ammonium (211 g/l) were, together with addition of 0.25 v/v % MSO (methylated seed oil) as adjuvant, formulated in 200 l/ha water as distribution medium and sprayed with commercial flat fan nozzles.
(§12) Herbicide A-1 (342 g/l), pyroxasulfone (500 g/l) and 2,4-D-choline (456 g/l) were, together with addition of 0.25 v/v % MSO (methylated seed oil) as adjuvant, formulated in 200 l/ha water as distribution medium and sprayed with commercial flat fan nozzles.

[2] = test system: Digitaria sanguinalis (DIGSA); details: stage 22, height 10-15 cm
Procedure: as §1, §2, §3, §4, §5, §6, §7, §8, §9, §10, §11, §12

[3] = test system: Glycine max (GLXMA); details: 7 DAT; stage 12-13, height 7-11 cm; g ai/ha A-1 12.5, B 70, C-4 12.5
Procedure: as §1, §2, §3, §4, §5, §6, §7, §8, §9, §10, §11, §12

[4] = test system: Setaria verticillata (SETVE); details: 7 DAT, stage 21-23, height 8-16 cm
Procedure: as §1, §2, §3, §4, §5, §6, §7, §8, §9, §10, §11, §12

[5] = test system: Zea mays (ZEAMX); details: 7 DAT; stage 15-16, height 27-33 cm; g ai/ha A-1 18, B 90, C-4 12.5
Procedure: as §1, §2, §3, §4, §5, §6, §7, §8, §9, §10, §11, §12

[6] = 7 DAT, g ai/ha A-1 12.5, B 70, C-4 12.5
[7] = 42 DAT, g ai/ha A-1 12.5, B 70, C-4 12.5
[8] = 42 DAT, g ai/ha A-1 18, B 70, C-4 12.5
[9] = 42 DAT, g ai/ha A-1 18, B 90, C-4 12.5

Row | Structure (SMILES) | % Herbicidal activity [1, 6] [%] | % Herbicidal activity [1, 7] [%] | % Herbicidal activity [1, 8] [%] | % Herbicidal activity [1, 9] [%] | % Herbicidal activity [2, 6] [%] | % Herbicidal activity ([2]; 7 DAT, g ai/ha A-1 18, B 70, C-4 12.5) [%] | % Herbicidal activity ([2]; 7 DAT, g ai/ha A-1 18, B 90, C-4 12.5) [%] | % Herbicidal activity ([2]; 21 DAT, g ai/ha A-1 12.5, B 70, C-4 12.5) [%] | % Herbicidal activity ([2]; 21 DAT, g ai/ha A-1 18, B 70, C-4 12.5) [%] | % Herbicidal activity ([2]; 21 DAT, g ai/ha A-1 18, B 90, C-4 12.5) [%] | % Herbicidal activity [2, 7] [%] | % Herbicidal activity [2, 8] [%] | % Herbicidal activity [2, 9] [%] | % Herbicidal activity [3] [%] | % Herbicidal activity ([4]; g ai/ha A-1 18, B 90, C-4 12.5) [%] | % Herbicidal activity [5] [%] | % Herbicidal activity ([2]; 7 DAT, g ai/ha A-1 18, B 70, C-8 840) [%] | % Herbicidal activity ([2]; 7 DAT, g ai/ha A-1 18, B 90, C-8 840) [%] | % Herbicidal activity ([4]; g ai/ha A-1 18, B 70, C-8 840) [%] | % Herbicidal activity ([4]; g ai/ha A-1 18, B 90, C-8 840) [%]
1 | C#CCN1C(=O)C(F)(F)Oc2cc(F)c(-n3c(=O)n(C)c(=S)n(C)c3=O)cc21 [C-4, trifludimoxazin] | 80 | 80 | 80 | 80 | 30 | 30 | 30 | 30 | 30 | 30 | 20 | 20 | 20 | 75 | 40 | 40 |  |  |  | 
2 | CC(C)N.O=C(O)CNCP(=O)(O)O [C-8, glyphosate-isopropylammonium] |  |  |  |  |  |  |  |  |  |  |  |  |  |  |  |  | 85 | 85 | 75 | 75
